Data reported in patent publication US11739090B2, “Substituted pyrazlo[3,4-c]pyridines as selective BTK kinase inhibitors” (JUMBO DRUG BANK CO., LTD., priority 2019, dated 2023).
One block for each compound: values may come before it.

Key:
Format in all cases: biochemical
BTK = BTK (Homo sapiens (Human), UniProt Q06187); assay: BTK kinase test (33P-ATP filter binding); details: final ATP 5 μM
Protocol: Experimental Example 1: BTK Kinase Test […]
(§1) buffer conditions: 20 mM HEPES (pH 7.5), 10 mM MgCl2, 1 mM EGTA, 0.02% Brij35, 0.02 mg/mL BSA, 0.1 mm Na3VO4, 2 mm DTT, 1% DMSO.
(§2) 2.1. Preparing an indicator substrate in a freshly prepared reaction buffer
(§3) 2.2. Delivering the desired cofactor to the above substrate solution
(§4) 2.3. Delivering the indicated kinase to the substrate solution and gently mixing same
(§5) 2.4. Delivering the compounds in DMSO to the kinase reaction mixture using acoustic technology (Echo550)
2.5. Initiating the reaction (final concentration of ATP: 5 μM) by delivering ^33P-ATP (final specific activity: 0.01 μci/μL) to the reaction mixture
(§6) 2.6. Incubating the kinase reaction at room temperature for 120 minutes
(§7) 2.7. Recording the reaction on P81 ion exchange paper (Whatman #3698-915)
(§8) 2.8. Washing the filter widely with 0.75% phosphoric acid
2.9. Measuring the radioactive phosphorylated substrate remaining on the filter paper. […]
the kinase activity data is expressed as the percentage of the remaining kinase activity in a test sample compared to a reaction with a carrier (dimethyl sulfoxide), and IC50 values and curve fitting are obtained using Prism4 software (GraphPad).

EGFR = EGFR (Homo sapiens (Human), UniProt P00533); assay: EGFR kinase test (33P-ATP filter binding); details: for The ratio of the activities of EGFR and BTK: EGFR IC50 / BTK IC50 (first figure of the cell); for IC50: final ATP 2 μM, 120 minutes at room temperature
EGFR, sequence (P00533 25-1210): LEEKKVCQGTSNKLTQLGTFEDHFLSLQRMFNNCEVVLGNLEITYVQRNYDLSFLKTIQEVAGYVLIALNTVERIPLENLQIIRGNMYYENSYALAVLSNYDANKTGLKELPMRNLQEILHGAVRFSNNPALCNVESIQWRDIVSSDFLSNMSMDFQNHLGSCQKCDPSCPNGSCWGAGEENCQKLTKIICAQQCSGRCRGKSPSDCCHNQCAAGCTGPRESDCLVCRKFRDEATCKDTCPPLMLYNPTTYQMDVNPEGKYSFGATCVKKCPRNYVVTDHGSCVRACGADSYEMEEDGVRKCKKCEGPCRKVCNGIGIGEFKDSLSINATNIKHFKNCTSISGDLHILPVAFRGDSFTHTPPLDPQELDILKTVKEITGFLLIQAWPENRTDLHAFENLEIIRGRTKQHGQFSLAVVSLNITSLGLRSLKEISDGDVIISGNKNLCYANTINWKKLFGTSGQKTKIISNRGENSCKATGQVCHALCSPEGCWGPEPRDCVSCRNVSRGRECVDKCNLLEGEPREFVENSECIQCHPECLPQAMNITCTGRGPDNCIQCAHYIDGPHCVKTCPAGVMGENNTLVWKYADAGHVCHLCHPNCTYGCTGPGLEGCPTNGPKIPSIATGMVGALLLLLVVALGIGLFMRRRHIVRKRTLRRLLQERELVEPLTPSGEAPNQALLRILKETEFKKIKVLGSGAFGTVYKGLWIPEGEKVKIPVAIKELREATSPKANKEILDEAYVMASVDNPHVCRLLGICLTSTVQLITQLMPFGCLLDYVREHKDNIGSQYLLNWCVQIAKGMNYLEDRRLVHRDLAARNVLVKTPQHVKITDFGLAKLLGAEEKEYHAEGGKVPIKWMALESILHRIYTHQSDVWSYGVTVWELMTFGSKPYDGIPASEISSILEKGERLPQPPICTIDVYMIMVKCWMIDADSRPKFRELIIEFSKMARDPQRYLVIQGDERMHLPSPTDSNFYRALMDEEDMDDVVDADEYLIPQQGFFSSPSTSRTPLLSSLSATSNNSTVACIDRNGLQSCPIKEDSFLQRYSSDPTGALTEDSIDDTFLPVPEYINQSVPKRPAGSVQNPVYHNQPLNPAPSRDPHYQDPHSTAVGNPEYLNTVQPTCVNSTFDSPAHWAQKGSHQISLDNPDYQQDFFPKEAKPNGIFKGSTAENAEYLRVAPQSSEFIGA
Protocol: (§9) Experimental Example 2: EGFR, ITK and TEC Kinase Test
as §1, §2, §3, §4, §5
(§10) 2.5. Initiating the reaction (final concentration of ATP: 2 μM, 5 μM and 5 μM respectively) by delivering ^33P-ATP (final specific activity: 0.01 μci/μL) to the reaction mixture
as §6, §7, §8
(§11) 2.9. Measuring the radioactive phosphorylated substrate remaining on the filter paper.
(§12) 3. Data analysis: the kinase activity data is expressed as the percentage of the remaining kinase activity in a test sample compared to a reaction with a carrier (dimethyl sulfoxide), and IC50 values and curve fitting are obtained using Prism4 software (GraphPad).

ITK = ITK (Homo sapiens (Human), UniProt Q08881); assay: ITK kinase test (33P-ATP filter binding); details: for The ratio of the activities of ITK and BTK: ITK IC50 / BTK IC50 (second figure of the cell); for IC50: final ATP 5 μM
ITK, sequence (Q08881 whole entry): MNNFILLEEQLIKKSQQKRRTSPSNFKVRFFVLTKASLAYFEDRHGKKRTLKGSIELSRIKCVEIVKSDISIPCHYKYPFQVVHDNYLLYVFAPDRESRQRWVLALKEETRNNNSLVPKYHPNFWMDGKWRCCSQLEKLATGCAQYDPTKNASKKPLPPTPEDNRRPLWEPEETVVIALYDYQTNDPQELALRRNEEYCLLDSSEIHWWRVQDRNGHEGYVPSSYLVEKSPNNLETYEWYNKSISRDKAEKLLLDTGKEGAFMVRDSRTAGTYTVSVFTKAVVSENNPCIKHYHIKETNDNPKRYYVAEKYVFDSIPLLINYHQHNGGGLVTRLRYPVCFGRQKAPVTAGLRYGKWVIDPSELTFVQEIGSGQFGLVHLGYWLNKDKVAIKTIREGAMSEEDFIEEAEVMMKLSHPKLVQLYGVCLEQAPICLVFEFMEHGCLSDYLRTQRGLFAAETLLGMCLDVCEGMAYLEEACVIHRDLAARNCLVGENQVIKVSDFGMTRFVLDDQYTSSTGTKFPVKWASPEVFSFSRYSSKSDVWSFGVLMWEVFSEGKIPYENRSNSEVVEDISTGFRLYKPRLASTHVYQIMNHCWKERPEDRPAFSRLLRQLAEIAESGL
Protocol: as §9, §1, §2, §3, §4, §5, §10, §6, §7, §8, §11, §12

TEC = TEC (Homo sapiens (Human), UniProt P42680); assay: TEC kinase test (33P-ATP filter binding); details: for The ratio of the activities of TEC and BTK: TEC IC50 / BTK IC50 (third figure of the cell); for IC50: final ATP 5 μM, 120 minutes at room temperature
TEC, sequence (P42680 whole entry): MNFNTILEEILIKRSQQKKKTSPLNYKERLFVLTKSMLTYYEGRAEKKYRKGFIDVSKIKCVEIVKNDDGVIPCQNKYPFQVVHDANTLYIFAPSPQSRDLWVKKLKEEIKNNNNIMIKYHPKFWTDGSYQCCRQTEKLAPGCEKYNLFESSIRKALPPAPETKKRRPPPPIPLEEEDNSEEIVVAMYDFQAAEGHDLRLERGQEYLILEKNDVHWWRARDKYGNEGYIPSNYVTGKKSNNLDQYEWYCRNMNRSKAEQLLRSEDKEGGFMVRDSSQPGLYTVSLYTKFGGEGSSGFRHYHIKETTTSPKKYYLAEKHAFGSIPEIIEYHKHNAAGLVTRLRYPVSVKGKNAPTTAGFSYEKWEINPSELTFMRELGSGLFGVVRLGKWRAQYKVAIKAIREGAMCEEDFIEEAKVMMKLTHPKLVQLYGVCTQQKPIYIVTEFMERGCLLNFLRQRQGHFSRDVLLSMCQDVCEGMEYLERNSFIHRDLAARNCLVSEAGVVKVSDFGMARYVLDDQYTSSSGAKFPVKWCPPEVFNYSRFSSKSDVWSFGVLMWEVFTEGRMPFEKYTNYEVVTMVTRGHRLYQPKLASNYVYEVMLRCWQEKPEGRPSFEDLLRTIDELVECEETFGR
Protocol: as §9, §1, §2, §3, §4, §5, §10, §6, §7, §8, §11, §12

[1] = Table 1, 120 minutes at room temperature

BTK, sequence (Q06187 whole entry): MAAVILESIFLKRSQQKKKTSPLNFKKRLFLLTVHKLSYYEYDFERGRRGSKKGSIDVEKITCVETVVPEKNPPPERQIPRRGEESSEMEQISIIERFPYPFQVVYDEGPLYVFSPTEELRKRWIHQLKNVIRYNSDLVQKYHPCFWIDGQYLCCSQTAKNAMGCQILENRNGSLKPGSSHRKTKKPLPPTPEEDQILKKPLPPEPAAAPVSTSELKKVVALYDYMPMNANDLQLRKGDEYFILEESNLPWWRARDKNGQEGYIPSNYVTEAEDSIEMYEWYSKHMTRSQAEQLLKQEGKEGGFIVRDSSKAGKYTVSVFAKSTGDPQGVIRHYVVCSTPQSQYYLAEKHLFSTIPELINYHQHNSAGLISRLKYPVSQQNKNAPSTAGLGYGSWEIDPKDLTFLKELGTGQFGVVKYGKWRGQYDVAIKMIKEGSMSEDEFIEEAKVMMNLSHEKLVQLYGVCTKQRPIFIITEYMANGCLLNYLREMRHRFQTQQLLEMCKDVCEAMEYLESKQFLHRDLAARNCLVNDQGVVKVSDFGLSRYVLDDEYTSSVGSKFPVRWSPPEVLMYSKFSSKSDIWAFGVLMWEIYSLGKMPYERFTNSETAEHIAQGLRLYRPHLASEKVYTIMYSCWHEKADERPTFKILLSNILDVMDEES

SMILES: C=CC(=O)N1CCO[C@@H](c2nn(-c3ccc(Oc4c(F)cccc4F)cc3)c3cncc(F)c23)C1 [Compound 3A]
IC50 (BTK; [1]): 9.58 nM

IC50 (BTK; [1]): 98.1 nM
SMILES: C=CC(=O)N1CCC[C@H](c2nn(-c3ccc(Oc4cc(F)cc(F)c4F)cc3)c3cncc(F)c23)C1 (single isomer, unassigned) [Compound 4B]

SMILES: C=CC(=O)N1CCC[C@@H](c2nn(-c3ccc(Oc4cc(F)ccc4F)cc3)c3cncc(F)c23)C1 [Compound 6A]
IC50 (BTK; [1]): 9.58 nM | IC50 (BTK; Table 2 comparison): 9.58 nM | The ratio of the activities of EGFR and BTK (EGFR): 84 fold | IC50 (EGFR): 812 nM | The ratio of the activities of ITK and BTK (ITK): 764 fold | IC50 (ITK; 120 minutes at room temperature): 7.32 µM | The ratio of the activities of TEC and BTK (TEC): 4-fold | IC50 (TEC): 43.2 nM

IC50 (BTK; [1]): 11 nM | IC50 (BTK; Table 2 comparison): 11 nM | The ratio of the activities of EGFR and BTK (EGFR): 183 fold | IC50 (EGFR): 2020 nM | The ratio of the activities of ITK and BTK (ITK): > 909 fold | IC50 (ITK; unit μM): > 10 µM | The ratio of the activities of TEC and BTK (TEC): fold, 15-fold | IC50 (TEC): 169 nM
SMILES: C=CC(=O)N1CCC[C@@H](c2nn(-c3ccc(Oc4cc(F)cc(F)c4F)cc3)c3cncc(F)c23)C1 (single isomer, unassigned) [Compound 4A]

SMILES: C=CC(=O)N1CCC[C@H](c2nn(-c3ccc(Oc4cc(F)ccc4F)cc3)c3cncc(F)c23)C1 [Compound 6B]
IC50 (BTK; [1]): 140 nM

SMILES: C=CC(=O)N1CCO[C@H](c2nn(-c3ccc(Oc4c(F)cccc4F)cc3)c3cncc(F)c23)C1 [Compound 3B]
IC50 (BTK; [1]): 2.7 nM

IC50 (BTK; [1]): 31.8 nM
SMILES: C=CC(=O)N1CCC[C@@H](c2nn(-c3ccc(Oc4cccc(F)c4F)cc3)c3cncc(F)c23)C1 (single isomer, unassigned) [Compound 5A]
